Experimental data published in paper PMC9127750, “Structure-based design of CDC42 effector interaction inhibitors for the treatment of cancer” (Cell reports, 2022).

System: WM3248 melanoma cells, 486 antibodies
Test: Reverse phase protein arrays (RPPA);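 as to RPPA ACC1.R.C: ratio of treated to vehicle (0 µM) normalized linear protein signal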;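 as to RPPA AMPK.a2 pS345.R.V: ratio of treated to vehicle (0 µM) normalized linear protein signal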;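 as to RPPA AMPKa pT172.R.C: ratio of treated to vehicle (0 µM) normalized linear protein signal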;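 as to RPPA ASNS.R.V: ratio of treated to vehicle (0 µM) normalized linear protein signal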;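 as to RPPA Akt1.R.V: ratio of treated to vehicle (0 µM) normalized linear protein signal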;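 as to RPPA Atg5.R.C: ratio of treated to vehicle (0 µM) normalized linear protein signal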;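 as to RPPA Bim.R.V: ratio of treated to vehicle (0 µM) normalized linear protein signal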
Type: cell-based, Human
Conditions: 10 uM
Description: Pellets were snap frozen in liquid nitrogen and shipped to MD Anderson Cancer Center core RPPA facility for RPPA analysis (Table S5). Three biological replicates for each sample were generated.
Nomenclatures on the RPPA heatmaps: name_of_antibody.species_of_antibody.status_of_antibody. V - antibody validated; C - validation of antibody in progress; Q - antibody nonspecific; E – under evaluation; antibodies raised in M - mouse, G - goat, R - rabbit, or T - rat.

CN(C)c1cccc(Nc2cc(-c3ccccc3)nc(C3CCNCC3)n2)c1 [ARN22089, N1,N1-dimethyl-N3-(6-phenyl-2-(piperidin-4-yl)pyrimidin-4-yl)benzene-1,3-diamine]
RPPA level MTCO1.M.V (Average): 0.952 | RPPA level Mcl.1.R.V (Average): 0.908 | RPPA level MelanA.R.C (Average): 0.925 | RPPA level Merlin.R.C (Average): 0.993 | RPPA level Midkine.R.V (Average): 1.001 | RPPA level Mitofusin.1.R.V (Average): 0.993 | RPPA level Mitofusin.2.R.V (Average): 0.945 | RPPA level Mnk1.R.V (Average): 0.956 | RPPA level mTOR.R.V (Average): 0.929 | RPPA level mTOR_pS2448.R.C (Average): 0.962 | c.Jun_pS73.R.V RPPA level (Average): 1.013 | c.Kit.R.V RPPA level (Average): 1.031 | c.Met_pY1234_Y1235.R.V RPPA level (Average): 0.982 | c.Myc.R.C RPPA level (Average): 1.334 | cGAS.R.V RPPA level (Average): 1.114 | cdc2_pY15.R.C RPPA level (Average): 0.967 | cdc25C.R.V RPPA level (Average): 0.900 | RPPA A.Raf.R.V (C.1): 0.924 | RPPA A.Raf_pS299.R.C (C.1): 1.052 | RPPA ACC1.R.C (C.1): 0.932 | RPPA ACC_pS79.R.V (C.1): 1.211 | RPPA ACLY_pS455.R.V (C.1): 1.216 | RPPA ACVRL1.R.C (C.1): 1.064 | RPPA ADAR1.M.V (C.1): 1.080 | RPPA ALKBH5.R.V (C.1): 1.056 | RPPA AMPK.a2_pS345.R.V (C.1): 0.962 | RPPA AMPKa.R.C (C.1): 0.981 | RPPA AMPKa_pT172.R.C (C.1): 2.354 | RPPA AR.R.V (C.1): 0.957 | RPPA ARID1A.R.C (C.1): 1.055 | RPPA ASNS.R.V (C.1): 0.968 | RPPA ATM.R.V (C.1): 0.876 | RPPA ATM_pS1981.R.V (C.1): 1.025 | RPPA ATP5A.M.C (C.1): 1.084 | RPPA ATP5H.R.V (C.1): 1.134 | RPPA ATRX.R.C (C.1): 0.823 | RPPA AceCS1.R.V (C.1): 1.056 | RPPA Akt1.R.V (C.1): 0.796 | RPPA Akt1_pS473.R.V (C.1): 0.792 | RPPA Akt2.R.V (C.1): 0.881 | RPPA Akt2_pS474.R.C (C.1): 0.939 | RPPA Akt.R.V (C.1): 0.872 | RPPA Akt_pS473.R.V (C.1): 0.917 | RPPA Akt_pT308.R.V (C.1): 0.810 | RPPA Ambra1_pS52.R.C (C.1): 1.060 | RPPA Annexin.I.M.V (C.1): 0.884 | RPPA Annexin.VII.M.V (C.1): 1.054 | RPPA Atg3.R.V (C.1): 0.850 | RPPA Atg4B.R.C (C.1): 0.734 | RPPA Atg5.R.C (C.1): 0.909 | RPPA Atg7.R.V (C.1): 0.713 | RPPA Aurora.A.R.C (C.1): 1.325 | RPPA Aurora.ABC_pT288_pT232_pT198.R.C (C.1): 1.697 | RPPA Axl.R.V (C.1): 0.673 | RPPA B7.H3.R.C (C.1): 0.862 | RPPA B7.H4.R.C (C.1): 0.874 | RPPA B.Raf.R.C (C.1): 0.709 | RPPA B.Raf_pS445.R.V (C.1): 0.874 | RPPA BCL2A1.R.V (C.1): 0.885 | RPPA BMK1.Erk5_pT218_Y220.R.V (C.1): 1.100 | RPPA BRCA1.M.C (C.1): 0.993 | RPPA Bad_pS112.R.V (C.1): 1.031 | RPPA Bak.R.C (C.1): 1.026 | RPPA Bax.R.V (C.1): 0.917 | RPPA Bcl2.R.C (C.1): 1.064 | RPPA Bcl.xL.R.V (C.1): 0.877 | RPPA BiP.GRP78.M.C (C.1): 0.971 | RPPA Bid.R.C (C.1): 0.858 | RPPA Bim.R.V (C.1): 0.886 | RPPA X4E.BP1.R.V (C.1): 1.220 | RPPA X4E.BP1_pS65.R.V (C.1): 0.985 | RPPA X4E.BP1_pT37_T46.R.V (C.1): 0.975 | RPPA X14.3.3.zeta.R.V (C.1): 1.026 | RPPA X53BP1.R.V (C.1): 0.922 | RPPA b.Actin.R.C (C.1): 0.996 | RPPA b.Catenin_pT41_S45.R.V (C.1): 0.984 | RPPA c.Abl.R.V (C.1): 1.031 | RPPA c.Abl_pY412.R.C (C.1): 0.928 | RPPA c.IAP2.R.C (C.1): 1.007 | RPPA PREX1.R.V Average (average of 3): 0.915 | RPPA PTEN.R.V Average (average of 3): 0.933
